Laboratory results published in the NIST ThermoML archive (doi:10.1016/j.jct.2004.12.008).
Numbers after ± are expanded uncertainties.

Assay: xn = mol fraction of the nth substance listed
Conditions: 101 kPa, Liquid

## C=Cc1ccccc1 [styrene] + O=[N+]([O-])c1ccccc1
293.15 K, x1 = 0.0536
  mass density: 1185.47 ± 2.1 kg/m3
293.15 K, x1 = 0.1324
  mass density: 1160.15 ± 1.9 kg/m3
293.15 K, x1 = 0.1909
  mass density: 1141.63 ± 1.8 kg/m3
293.15 K, x1 = 0.2564
  mass density: 1121.18 ± 1.6 kg/m3
293.15 K, x1 = 0.3257
  mass density: 1099.86 ± 1.5 kg/m3
293.15 K, x1 = 0.3986
  mass density: 1077.76 ± 1.3 kg/m3
293.15 K, x1 = 0.4576
  mass density: 1060.12 ± 1.1 kg/m3
293.15 K, x1 = 0.5243
  mass density: 1040.42 ± 0.98 kg/m3
293.15 K, x1 = 0.5888
  mass density: 1021.61 ± 0.83 kg/m3
293.15 K, x1 = 0.6424
  mass density: 1006.13 ± 0.7 kg/m3
293.15 K, x1 = 0.7156
  mass density: 985.23 ± 0.77 kg/m3
293.15 K, x1 = 0.7756
  mass density: 968.27 ± 0.9 kg/m3
293.15 K, x1 = 0.8324
  mass density: 952.34 ± 1 kg/m3
293.15 K, x1 = 0.8755
  mass density: 940.34 ± 1.1 kg/m3
293.15 K, x1 = 0.9424
  mass density: 921.83 ± 1.3 kg/m3
293.15 K, x1 = 1
  mass density: 906 ± 1.4 kg/m3
303.15 K, x1 = 0.0621
  mass density: 1173.19 ± 2 kg/m3
303.15 K, x1 = 0.1248
  mass density: 1152.93 ± 1.9 kg/m3
303.15 K, x1 = 0.1822
  mass density: 1134.64 ± 1.7 kg/m3
303.15 K, x1 = 0.2429
  mass density: 1115.56 ± 1.6 kg/m3
303.15 K, x1 = 0.3139
  mass density: 1093.59 ± 1.4 kg/m3
303.15 K, x1 = 0.3571
  mass density: 1080.39 ± 1.3 kg/m3
303.15 K, x1 = 0.4249
  mass density: 1059.93 ± 1.1 kg/m3
303.15 K, x1 = 0.4819
  mass density: 1042.96 ± 1 kg/m3
303.15 K, x1 = 0.5487
  mass density: 1023.33 ± 0.85 kg/m3
303.15 K, x1 = 0.5901
  mass density: 1011.29 ± 0.75 kg/m3
303.15 K, x1 = 0.6528
  mass density: 993.23 ± 0.71 kg/m3
303.15 K, x1 = 0.7289
  mass density: 971.58 ± 0.88 kg/m3
303.15 K, x1 = 0.7913
  mass density: 954.03 ± 1 kg/m3
303.15 K, x1 = 0.8592
  mass density: 935.12 ± 1.2 kg/m3
303.15 K, x1 = 0.9368
  mass density: 913.72 ± 1.3 kg/m3
303.15 K, x1 = 1
  mass density: 896.44 ± 1.5 kg/m3
313.15 K, x1 = 0.0492
  mass density: 1167.15 ± 2 kg/m3
313.15 K, x1 = 0.1189
  mass density: 1144.52 ± 1.8 kg/m3
313.15 K, x1 = 0.1898
  mass density: 1121.9 ± 1.6 kg/m3
313.15 K, x1 = 0.2563
  mass density: 1101.03 ± 1.5 kg/m3
313.15 K, x1 = 0.3398
  mass density: 1075.31 ± 1.3 kg/m3
313.15 K, x1 = 0.4018
  mass density: 1056.54 ± 1.1 kg/m3
313.15 K, x1 = 0.4621
  mass density: 1038.54 ± 0.97 kg/m3
313.15 K, x1 = 0.5243
  mass density: 1020.21 ± 0.82 kg/m3
313.15 K, x1 = 0.5811
  mass density: 1003.69 ± 0.69 kg/m3
313.15 K, x1 = 0.6421
  mass density: 986.16 ± 0.76 kg/m3
313.15 K, x1 = 0.7132
  mass density: 965.98 ± 0.92 kg/m3
313.15 K, x1 = 0.7723
  mass density: 949.39 ± 1.1 kg/m3
313.15 K, x1 = 0.8421
  mass density: 930.01 ± 1.2 kg/m3
313.15 K, x1 = 0.8942
  mass density: 915.68 ± 1.3 kg/m3
313.15 K, x1 = 0.9524
  mass density: 899.79 ± 1.4 kg/m3
313.15 K, x1 = 1
  mass density: 886.88 ± 1.6 kg/m3
323.15 K, x1 = 0.0598
  mass density: 1152.7 ± 1.9 kg/m3
323.15 K, x1 = 0.1329
  mass density: 1129.06 ± 1.7 kg/m3
323.15 K, x1 = 0.1942
  mass density: 1109.58 ± 1.5 kg/m3
323.15 K, x1 = 0.2458
  mass density: 1093.41 ± 1.4 kg/m3
323.15 K, x1 = 0.3239
  mass density: 1069.35 ± 1.2 kg/m3
323.15 K, x1 = 0.3891
  mass density: 1049.61 ± 1.1 kg/m3
323.15 K, x1 = 0.4314
  mass density: 1036.97 ± 0.96 kg/m3
323.15 K, x1 = 0.5028
  mass density: 1015.92 ± 0.79 kg/m3
323.15 K, x1 = 0.5622
  mass density: 998.67 ± 0.67 kg/m3
323.15 K, x1 = 0.6321
  mass density: 978.64 ± 0.83 kg/m3
323.15 K, x1 = 0.6873
  mass density: 963.03 ± 0.95 kg/m3
323.15 K, x1 = 0.7419
  mass density: 947.74 ± 1.1 kg/m3
323.15 K, x1 = 0.8054
  mass density: 930.15 ± 1.2 kg/m3
323.15 K, x1 = 0.8823
  mass density: 909.1 ± 1.4 kg/m3
323.15 K, x1 = 0.9339
  mass density: 895.1 ± 1.5 kg/m3
323.15 K, x1 = 1
  mass density: 877.32 ± 1.6 kg/m3
333.15 K, x1 = 0.0647
  mass density: 1139.39 ± 1.8 kg/m3
333.15 K, x1 = 0.1278
  mass density: 1119.07 ± 1.6 kg/m3
333.15 K, x1 = 0.1825
  mass density: 1101.73 ± 1.5 kg/m3
333.15 K, x1 = 0.2542
  mass density: 1079.38 ± 1.3 kg/m3
333.15 K, x1 = 0.3183
  mass density: 1059.76 ± 1.1 kg/m3
333.15 K, x1 = 0.3798
  mass density: 1041.24 ± 0.99 kg/m3
333.15 K, x1 = 0.4248
  mass density: 1027.86 ± 0.88 kg/m3
333.15 K, x1 = 0.4892
  mass density: 1008.97 ± 0.74 kg/m3
333.15 K, x1 = 0.5329
  mass density: 996.32 ± 0.69 kg/m3
333.15 K, x1 = 0.5892
  mass density: 980.2 ± 0.82 kg/m3
333.15 K, x1 = 0.6379
  mass density: 966.41 ± 0.92 kg/m3
333.15 K, x1 = 0.7132
  mass density: 945.37 ± 1.1 kg/m3
333.15 K, x1 = 0.7987
  mass density: 921.85 ± 1.3 kg/m3
333.15 K, x1 = 0.868
  mass density: 903.04 ± 1.4 kg/m3
333.15 K, x1 = 0.9468
  mass density: 881.9 ± 1.6 kg/m3
333.15 K, x1 = 1
  mass density: 867.76 ± 1.7 kg/m3
343.15 K, x1 = 0.0687
  mass density: 1125.66 ± 1.7 kg/m3
343.15 K, x1 = 0.1139
  mass density: 1111.2 ± 1.6 kg/m3
343.15 K, x1 = 0.1842
  mass density: 1089.06 ± 1.4 kg/m3
343.15 K, x1 = 0.2389
  mass density: 1072.13 ± 1.2 kg/m3
343.15 K, x1 = 0.3234
  mass density: 1046.47 ± 1 kg/m3
343.15 K, x1 = 0.3894
  mass density: 1026.81 ± 0.87 kg/m3
343.15 K, x1 = 0.4346
  mass density: 1013.54 ± 0.77 kg/m3
343.15 K, x1 = 0.4903
  mass density: 997.4 ± 0.69 kg/m3
343.15 K, x1 = 0.5538
  mass density: 979.25 ± 0.83 kg/m3
343.15 K, x1 = 0.614
  mass density: 962.29 ± 0.96 kg/m3
343.15 K, x1 = 0.6622
  mass density: 948.88 ± 1.1 kg/m3
343.15 K, x1 = 0.7319
  mass density: 929.71 ± 1.2 kg/m3
343.15 K, x1 = 0.7922
  mass density: 913.35 ± 1.4 kg/m3
343.15 K, x1 = 0.8531
  mass density: 896.99 ± 1.5 kg/m3
343.15 K, x1 = 0.9234
  mass density: 878.32 ± 1.6 kg/m3
343.15 K, x1 = 1
  mass density: 858.2 ± 1.8 kg/m3
353.15 K, x1 = 0.055
  mass density: 1116.88 ± 1.6 kg/m3
353.15 K, x1 = 0.1376
  mass density: 1090.79 ± 1.4 kg/m3
353.15 K, x1 = 0.1726
  mass density: 1079.91 ± 1.3 kg/m3
353.15 K, x1 = 0.2389
  mass density: 1059.6 ± 1.1 kg/m3
353.15 K, x1 = 0.302
  mass density: 1040.61 ± 0.99 kg/m3
353.15 K, x1 = 0.3791
  mass density: 1017.85 ± 0.8 kg/m3
353.15 K, x1 = 0.4349
  mass density: 1001.66 ± 0.68 kg/m3
353.15 K, x1 = 0.5139
  mass density: 979.13 ± 0.83 kg/m3
353.15 K, x1 = 0.5628
  mass density: 965.4 ± 0.94 kg/m3
353.15 K, x1 = 0.6249
  mass density: 948.19 ± 1.1 kg/m3
353.15 K, x1 = 0.6733
  mass density: 934.94 ± 1.2 kg/m3
353.15 K, x1 = 0.7234
  mass density: 921.37 ± 1.3 kg/m3
353.15 K, x1 = 0.7981
  mass density: 901.38 ± 1.4 kg/m3
353.15 K, x1 = 0.8621
  mass density: 884.47 ± 1.6 kg/m3
353.15 K, x1 = 0.9412
  mass density: 863.83 ± 1.8 kg/m3
353.15 K, x1 = 1
  mass density: 848.64 ± 1.9 kg/m3
